# In paper PMC4038554, “Human CD4^+ T Cell Responses to the Dog Major Allergen Can f 1 and Its Human Homologue Tear Lipocalin Resemble Each Other” (PLoS ONE, 2014):
# Key:
# Assay in all cases: HLA class II peptide-binding assay (competitive ELISA)
# [1] = target: DRB1*0101 (Homo sapiens, UniProt P01903+P01911, A100R/D57E/F55L/F60I/F76Y/I96L/L162R/M171V/P40L/Q125E/R42F/V115G/Y59C); conditions: immunopurified HLA, reference peptide IC50 3 nM, ratio ≤20 high affinity, 20–200 moderate affinity
# [2] = target: DRB1*0401 (Homo sapiens, UniProt P01903+P01911, A100K/A169T/F76Y/I96L/K127E/L162R/M171V/N62H/P40V/Q125Y/R42H/S133A/S149N/S66Y/V115G/V209L/W38E); conditions: immunopurified HLA, reference peptide IC50 8 nM, ratio ≤20 high affinity, 20–200 moderate affinity
# [3] = test system: DRB5; parameters: species or system human; conditions: DRB5; competitive ELISA, immunopurified HLA; reference peptide IC50 7 nM; ratio ≤20 high affinity, 20–200 moderate affinity
# [4] = target: DRB1*0301 (Homo sapiens, UniProt P01903+P01911, A100K/A102G/A103R/A169T/F55Y/I96L/K41T/L162R/M171V/P40S/Q125H/Q178H/Q39Y/R42S/S66N/T106N/T262R/W38E/Y61H); conditions: immunopurified HLA, reference peptide IC50 423 nM, ratio ≤20 high affinity, 20–200 moderate affinity
# [5] = target: DRB1*1301 (Homo sapiens, UniProt P01903+P01911, A100E/A169T/K41T/L162R/M171V/P40S/Q125H/Q178H/Q39Y/Q99D/R42S/S66N/T262R/W38E/Y61H); conditions: immunopurified HLA, reference peptide IC50 208 nM, ratio ≤20 high affinity, 20–200 moderate affinity
# [6] = test system: DRB3; parameters: species or system human; conditions: DRB3; competitive ELISA, immunopurified HLA; reference peptide IC50 60 nM; ratio ≤20 high affinity, 20–200 moderate affinity
# [7] = target: DRB1*1101 (Homo sapiens, UniProt P01903+P01911, A100R/A169T/A87E/I96F/K41T/L162R/M171V/P40S/Q125H/Q178H/Q39Y/Q99D/R42S/S66Y/T262R/V115G/W38E); conditions: immunopurified HLA, reference peptide IC50 50 nM, ratio ≤20 high affinity, 20–200 moderate affinity
# [8] = target: DRB1*0701 (Homo sapiens, UniProt P01903+P01911, A100R/A102G/A103Q/D57E/D86V/E43K/F76Y/K127E/L162R/M171V/P40G/Q125H/Q99D/R33Q/R42Y/R54Q/S133A/S66F/T210M/V115G/Y107V/Y59L/Y89S); conditions: immunopurified HLA, reference peptide IC50 5 nM, ratio ≤20 high affinity, 20–200 moderate affinity
# [9] = test system: DRB4; parameters: species or system human; conditions: DRB4; competitive ELISA, immunopurified HLA; reference peptide IC50 8 nM; ratio ≤20 high affinity, 20–200 moderate affinity
# [10] = target: DRB1*1501 (Homo sapiens, UniProt P01903+P01911); conditions: immunopurified HLA, reference peptide IC50 775 nM, ratio ≤20 high affinity, 20–200 moderate affinity
Sequence,relative binding ratio (IC50 of the test peptide divided by IC50 of the reference peptide) [1],relative binding ratio (IC50 of the test peptide divided by IC50 of the reference peptide) [2],relative binding ratio (IC50 of the test peptide divided by IC50 of the reference peptide) [3],relative binding ratio (IC50 of the test peptide divided by IC50 of the reference peptide) [4],relative binding ratio (IC50 of the test peptide divided by IC50 of the reference peptide) [5],relative binding ratio (IC50 of the test peptide divided by IC50 of the reference peptide) [6],relative binding ratio (IC50 of the test peptide divided by IC50 of the reference peptide) [7],relative binding ratio (IC50 of the test peptide divided by IC50 of the reference peptide) [8],relative binding ratio (IC50 of the test peptide divided by IC50 of the reference peptide) [9],relative binding ratio (IC50 of the test peptide divided by IC50 of the reference peptide) [10]
"ALEDFEKAAGARGLST [pTL8, Tear lipocalin peptide p126–141]",3,85,22,> 236,> 481,> 167,> 200,1 440,> 1 179,> 13
"ALEDFREFSRAKGLNQ [pC8, Can f 1 peptide p125–140]",155,189,101,> 236,245,> 167,2,71,> 1 179,> 13
"EILELAQSETCSPGGQ [pC9, Can f 1 peptide p141–156]",54,113,> 1 443,> 236,> 481,> 167,> 200,230,> 1 179,> 13
"ESILIPRQSETCSPGSD [pTL9, Tear lipocalin peptide p142–158]",569,> 1 260,> 1 443,> 236,> 481,> 167,> 200,> 1 874,> 1 179,> 13
"GKHVAYIIRSHVKDHY [pTL5, Tear lipocalin peptide p82–97]",209,120,1,7,5,> 167,0.3,447,> 1 179,> 13
"GKWYLKAMTADQEVPE [pC1, Can f 1 peptide p15–30]",32,1,72,1,26,> 167,70,75,29,8
"GQRVVFIQPSPVRDHY [pC5, Can f 1 peptide p81–96]",1,101,3,28,33,> 167,179,61,1 054,7
"GTWYLKAMTVDREFPE [pTL1, Tear lipocalin peptide p15–30]",82,1,2,10,24,84,67,47,1,6
"HYIFYCEGELHGKPVR [pTL6, Tear lipocalin peptide p96–111]",31,3,16,> 236,> 481,> 167,3,2 222,121,5
